Drawing on patent US11365199B2, “Pyrazole compounds as modulators of FSHR and uses thereof” (Merck Patent GmbH, priority 2013, dated 2022), this text covers EC50 for ten compounds.

The target of assay [1] is T1, FSHR (Homo sapiens, UniProt P23945).
T1 construct: expressed in transfected cells; host or cells: CHO (Cho-FSHR-LUC-1-1-43)
T1 sequence (P23945 18-695): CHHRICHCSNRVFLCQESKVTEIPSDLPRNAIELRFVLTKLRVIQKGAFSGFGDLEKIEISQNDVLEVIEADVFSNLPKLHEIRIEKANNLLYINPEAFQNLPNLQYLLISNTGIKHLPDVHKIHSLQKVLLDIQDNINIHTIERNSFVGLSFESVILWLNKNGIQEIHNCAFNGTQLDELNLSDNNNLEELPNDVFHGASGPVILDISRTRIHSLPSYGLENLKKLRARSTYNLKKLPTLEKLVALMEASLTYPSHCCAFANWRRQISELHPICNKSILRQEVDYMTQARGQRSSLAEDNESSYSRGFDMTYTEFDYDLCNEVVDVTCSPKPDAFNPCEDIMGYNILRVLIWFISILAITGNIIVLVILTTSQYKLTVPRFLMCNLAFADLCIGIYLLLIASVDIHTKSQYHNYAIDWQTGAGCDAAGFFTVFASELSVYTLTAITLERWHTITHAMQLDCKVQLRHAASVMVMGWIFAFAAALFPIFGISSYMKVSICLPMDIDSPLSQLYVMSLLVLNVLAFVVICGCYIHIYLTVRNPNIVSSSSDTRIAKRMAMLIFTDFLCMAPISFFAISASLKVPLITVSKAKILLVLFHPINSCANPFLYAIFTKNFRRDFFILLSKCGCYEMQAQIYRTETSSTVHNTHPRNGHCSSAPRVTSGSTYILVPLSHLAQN
Description: EC50 of cyclic AMP production in CHO FSHR cells + EC20 FSH (Assay A). To be noted: CHO FSHR cells + EC20 FSH, cAMP HTRF; read-out: Assay A: EC50 of cyclic AMP production. In kind it is cell-based. The gist of the method: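 cAMP HTRF read-out (665 nm/620 nm ratio) after 1 h at 37° C of Cho-FSHR-LUC cells treated with serially diluted test compound plus EC20 FSH ([…]) and IBMX (final 200 μM). Responses given as percent of maximal FSH-standard effect.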

Assay [2] deals with T2, follicle-stimulating hormone (FSH) receptor (Rattus norvegicus, UniProt P20395).
T2 construct: endogenous in cells; host or cells: primary rat granulosa cells
T2 sequence (P20395 18-692): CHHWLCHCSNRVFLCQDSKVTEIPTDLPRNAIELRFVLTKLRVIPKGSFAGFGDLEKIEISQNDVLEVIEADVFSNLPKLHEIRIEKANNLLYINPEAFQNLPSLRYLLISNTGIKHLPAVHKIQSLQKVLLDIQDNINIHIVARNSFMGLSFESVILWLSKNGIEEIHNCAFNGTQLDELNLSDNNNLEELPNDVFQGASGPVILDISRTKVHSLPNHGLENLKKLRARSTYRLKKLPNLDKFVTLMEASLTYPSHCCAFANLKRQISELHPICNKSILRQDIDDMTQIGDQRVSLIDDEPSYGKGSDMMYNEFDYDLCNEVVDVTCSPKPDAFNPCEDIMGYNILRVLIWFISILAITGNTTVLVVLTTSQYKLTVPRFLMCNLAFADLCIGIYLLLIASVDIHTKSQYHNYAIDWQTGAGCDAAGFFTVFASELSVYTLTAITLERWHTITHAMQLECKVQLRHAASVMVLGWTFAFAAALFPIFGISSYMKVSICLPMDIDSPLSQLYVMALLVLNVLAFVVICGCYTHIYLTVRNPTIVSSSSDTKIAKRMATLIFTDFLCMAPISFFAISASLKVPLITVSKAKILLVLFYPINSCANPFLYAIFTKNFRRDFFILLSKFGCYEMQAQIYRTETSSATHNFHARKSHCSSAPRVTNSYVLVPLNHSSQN
Description: Rat granulosa EC50 FSH (Assay B). In kind it is cell-based. The note with it: rat granulosa cells; read-out: Assay B: Rat granulosa EC50 FSH. On the procedure:
Rat Granulosa EC50 FSH (Assay B)
The assay was performed pursuant to the teaching of Yanofsky et al. (2006) Allosteric activation of the follicle-stimulating hormone (FSH) receptor by selective, nonpeptide agonists (JBC 281(19): 13226-13233, which is incorporated by reference in the disclosure of the invention).

Where only a bound is given, the exact number is not on record here.

With `COc1cc2c(cc1OC(C)C)-c1c(c(C(=O)N3CCCC(C(=O)N4CCC4)CC3)nn1-c1ccsc1)CO2` (centres unmarked) [Compound 26, [4-(Azetidine-1-carbonyl)-azepan-1-yl]-(8-isopropoxy-7-methoxy-1-thiophen-3-yl-1,4-dihydro-chromeno[4,3-c]pyrazol-3-yl)-methanone], the EC50 in assay [1] was 1000 to 5000 nM; in assay [2], more than 5000 nM.
In the case of `COc1cc2c(cc1-c1c(C)n[nH]c1C)-c1c(c(C(=O)N3CCOCC3(C)C)nn1-c1ccsc1)CO2` [Compound 126, (3,3-Dimethyl-morpholin-4-yl)-[8-(3,5-dimethyl-1H-pyrazol-4-yl)-7-methoxy-1-thiophen-3-yl-1,4-dihydro-chromeno[4,3-c]pyrazol-3-yl]-methanone], the EC50 in assay [1] was less than 100 nM; in assay [2] it was 100 to 1000 nM.
The matching figures for `COc1cc2c(cc1-c1ccn(C)c1)-c1c(c(C(=O)N3CCOCC3(C)C)nn1-c1ccsc1)CO2` [Compound 98, (3,3-Dimethyl-morpholin-4-yl)-[7-methoxy-8-(1-methyl-1H-pyrrol-3-yl)-1-thiophen-3-yl-1,4-dihydro-chromeno[4,3-c]pyrazol-3-yl]-methanone]: less than 100 nM and 1000 to 5000 nM.
As for `[2H]C([2H])([2H])OCC1(N(C(=O)c2nn(-c3ccsc3)c3c2COc2cc(OC)c(-c4ccn(C)n4)cc2-3)C([2H])([2H])[2H])COC1` [Compound 114], the EC50 was less than 100 nM in assay [1] and 1000 to 5000 nM in assay [2].
On to `COc1cc2c(cc1-c1ccn(C)c1)-c1c(c(C(=O)N3CCNCC3(C)C)nn1-c1ccsc1)CO2` [Compound 170], for which the EC50 in assay [1] is less than 100 nM; in assay [2], 1000 to 5000 nM.
With `[2H]C([2H])([2H])N(CCN1CCOC1=O)C(=O)c1nn(-c2ccsc2)c2c1COc1cc(OC)c(CC(C)C)cc1-2` [Compound 214], the values for the EC50 in assay [1] and in assay [2] were less than 100 nM and 1000 to 5000 nM, respectively.
The matching figures for `[2H]C([2H])([2H])N(C(=O)c1nn(-c2ccsc2)c2c1COc1cc(OC)c(-c3ccn(C)c3)cc1-2)C1(C)COC1` [Compound 115]: less than 100 nM and 100 to 1000 nM.
In the case of `COc1cc2c(cc1C#N)-c1c(c(C(=O)N(C)C(C)(C)C)nn1-c1ccsc1)CO2` [Compound 12, 8-Cyano-7-methoxy-1-thiophen-3-yl-1,4-dihydro-chromeno[4,3-c]pyrazole-3-carboxylic Acid tert-butyl-methyl-amide], the EC50 in assay [1] is less than 100 nM; in assay [2], 1000 to 5000 nM.
Consider `COc1cc2c(cc1-c1ncco1)-c1c(c(C(=O)N(C)C(C)(C)C)nn1-c1ccsc1)CO2` [Compound 132, 7-Methoxy-8-oxazol-2-yl-1-thiophen-3-yl-1,4-dihydro-chromeno[4,3-c]pyrazole-3-carboxylic acid tert-butyl-methyl-amide], for which the concentration for a half-maximal effect (EC50) in assay [1] is less than 100 nM; in assay [2], 100 to 1000 nM.
For `COc1cc2c(cc1C1CCOC1)-c1c(c(C(=O)N(C)C(C)(C)C)nn1-c1ccsc1)CO2` (centres unmarked) [Compound 194, 7-Methoxy-8-(tetrahydro-furan-3-yl)-1-thiophen-3-yl-1,4-dihydro-chromeno[4,3-c]pyrazole-3-carboxylic Acid tert-butyl-methyl-amide], in that order: less than 100 nM and 100 to 1000 nM.
